{
  "source": "patent US4130647A",
  "about": "“Methods for treating congestive heart failure and ischemic heart disease” (priority 1977, dated 1978)",
  "key": {"[1]": {"test_system": "patients with essential hypertension", "conditions": "cited from earlier work"}, "[2]": {"test_system": "patients with congestive heart failure", "experiment": "Hemodynamic effects of oral trimazosin in congestive heart failure (Example 2)", "assay_type": "in vivo, human", "method": "Studies were performed in male patients with clinical and radiographic evidence of congestive heart failure due to ischemic or primary cardiomyopathy. To be eligible for the study patients had to have supine systolic blood pressure of at least 100 mm. Hg. and a supine resting cardiac index below 2.5 L/min./m^2, as measured by the non-invasive carbon dioxide rebreathing method [Franciosa, et al., J. Lab. Clin. Med., 88, 662 (1976) and Franciosa, et al., Circulation, 55, 449 (1977)]. Six patients met these criteria and were selected for the study.\nAfter obtaining written informed consent, patients were entered into a 2 day dose finding period during which single daily doses of trimazosin were given and blood pressure and heart rate monitored for 4 hours. On day one 100 mg. was given; if no response or side effects occurred, 200 mg. was given the next day. For purposes of this study a response was defined as a fall in supine blood pressure to a level equal to 0.2 × control systolic pressure +76 mm. Hg. This formula was arbitrarily chosen so that patients with control systolic blood pressure as low as 100 mm. Hg. would be included, and their pressures could be reduced to 96 mm. Hg. Upon completion to the dose finding period, no trimazosin was given for the next 24 hours to allow for washout of previous doses. After this, hemodynamic studies were performed employing the predetermined doses; if 200 mg. of trimazosin was ineffective, 300 mg. was given for hemodynamic studies.\nOn the day of hemodynamic studies, diuretics and other vasodilators were withheld but maintenance digitalis doses were given in order to obtain a reasonably steady hemodynamic state. Procainamide was given to the one patient who had been taking it chronically. Right heart catheterization was performed using a triple lumen Swan-Ganz catheter which was inserted percutaneously via an antecubital or femoral vein and positioned with its tip in the pulmonary artery and the proximal lumen in the right atrium [Swan, et al,. N. Engl. J. Med., 283, 447 (1970)]. A brachial artery was cannulated with a short teflon catheter inserted over an 18-guage thin walled needle. Catheters were connected to P23Db Statham pressure transducers and pressures recorded on a Hewlett-Packard multichannel physiological recorder. Transducers were positioned at the mid-chest level with the patient supine, and all measurements were made in this position. Heart rate was monitored from the electrocardiogram. Cardiac outputs were measured by the dye-dilution method using indocyanine green injected into the pulmonary artery and sampled from the brachial artery through a Gilford densitometer connected to the recorder. Forearm venous capacitance was measured by occlusion plethysmography employing a Whitney mercury-in-rubber resistance guage [Cohen, et al., Clin. Sci., 30, 267 (1966) and Mason, et al., Circulation, 32, 756 (1965)]. For this determination, the forearm was elevated and suspended in a cradle. The venous occluding cuff was inflated to 30 mm. Hg. and forearm girth allowed to equilibrate over 2-3 minutes. The change in forearm girth at this point was taken as a measure of venous capacitance.\nHemodynamic measurements were made before and at hourly intervals for 4 hours after administration of trimazosin. Pulmonary wedge pressure was taken as occluded pulmonary arterial pressure or pulmonary arterial diastolic pressure. These were not interchanged and only one was used in any given patient. Systemic vascular resistance was calculated as the difference between means systemic arterial and right atrial pressures divided by cardiac output. Pulmonary vascular resistance was calculated as mean pulmonary arterial pressure divided by cardiac output. […]"}, "[3]": {"conditions": "single oral doses of 50 to 150 mg."}, "[4]": {"conditions": "2 hours after trimazosin, individual patients"}},
  "note": "Where “and” joins values, the source holds several entries; their conditions need not be identical. Identical values can stand only once.",
  "data": [
    {"smiles": "COc1cc2c(N)nc(N3CCN(C(=O)OCC(C)(C)O)CC3)nc2c(OC)c1OC", "note": "[trimazosin, 2-hydroxy-2-methylpropyl 4-(4-amino-6,7,8-trimethoxy-2-quinazolinyl)-1-piperazinecarboxylate]", "values": [
      {"measurement": "Heart Rate", "setting": "[1]; hypertensives without heart failure", "result": "does not increase heart rate"},
      {"measurement": "blood pressure", "setting": "[1]; [3]", "result": "significantly lower blood pressure"},
      {"measurement": "effect on heart rate", "setting": "[1]; [3]", "result": "No significant effects"},
      {"measurement": "effect on plasma renin activity", "setting": "[1]; [3]", "result": "No significant effects"},
      {"measurement": "side effect", "setting": "[1]; [3]", "result": "Mild transient dizziness"},
      {"measurement": "time of peak effect", "setting": "[1]; [3]", "result": "between one and four hours"},
      {"measurement": "time until effect was apparent", "setting": "[1]; [3]", "result": "≤ 30", "unit": "min"},
      {"measurement": "cardiac index, patients not responding", "setting": "[2]; 2 hours after trimazosin", "result": "failed to increase in 2 patients"},
      {"measurement": "pulmonary arterial pressures, patients responding", "setting": "[2]; 2 hours after trimazosin", "result": "fell in every patient"},
      {"measurement": "Cardiac Index", "setting": "[2]; [4]", "result": "1.86 L/min./m^2 and 1.14 L/min./m^2 and 2.36 L/min./m^2 and 1.74 L/min./m^2 and 2.96 L/min./m^2 and 2.67 L/min./m^2"},
      {"measurement": "Mean Pulmonary Arterial Pressure", "setting": "[2]; [4]", "result": "15 mm.Hg. and 39 mm.Hg. and 29 mm.Hg. and 49 mm.Hg. and 31 mm.Hg. and 40 mm.Hg."},
      {"measurement": "Mean Systemic Arterial Pressure", "setting": "[2]; [4]", "result": "82 mm.Hg. and 78 mm.Hg. and 88 mm.Hg. and 87 mm.Hg. and 73 mm.Hg."},
      {"measurement": "Pulmonary Vascular Resistance", "setting": "[2]; [4]", "result": "4 units and 18 units and 6 units and 15 units and 8 units"},
      {"measurement": "Pulmonary Wedge Pressure", "setting": "[2]; [4]", "result": "3 mm.Hg. and 28 mm.Hg. and 23 mm.Hg. and 37 mm.Hg. and 18 mm.Hg. and 34 mm.Hg."},
      {"measurement": "Systemic Vascular Resistance", "setting": "[2]; [4]", "result": "23 units and 31 units and 16 units and 24 units and 15 units and 12 units"},
      {"measurement": "Heart Rate, mean", "setting": "[2]; 2 hours after trimazosin, mean dose 183.3 mg., control 88.0, ns", "result": 85.0, "unit": "beats/min."},
      {"measurement": "right atrial pressure", "setting": "[2]; 2 hours after trimazosin, before 11.3 ± 2.1", "result": "8.7 ± 1.6", "unit": "mm. Hg."},
      {"measurement": "Cardiac Index, mean", "setting": "[2]; 2 hours after trimazosin, control 1.76, ns", "result": 2.12, "unit": "L/min./m^2"},
      {"measurement": "Pulmonary Vascular Resistance, mean", "setting": "[2]; 2 hours after trimazosin, control 15.8, P <0.05", "result": 9.5, "unit": "units"},
      {"measurement": "Systemic Vascular Resistance, mean", "setting": "[2]; 2 hours after trimazosin, control 27.3, ns", "result": 20.2, "unit": "units"},
      {"measurement": "Pulmonary Wedge Pressure, mean", "setting": "[2]; 2 hours after trimazosin, control 30.7, P <0.01", "result": 23.8, "unit": "mm.Hg."},
      {"measurement": "Mean Pulmonary Arterial Pressure, mean", "setting": "[2]; 2 hours after trimazosin, control 40.7, P <0.01", "result": 33.8, "unit": "mm.Hg."},
      {"measurement": "Mean Systemic Arterial Pressure, mean", "setting": "[2]; 2 hours after trimazosin, control 91.2, P <0.05", "result": 82.5, "unit": "mm.Hg."},
      {"measurement": "pulmonary wedge pressure persistence", "setting": "[2]; 4 hours after trimazosin", "result": "still significantly below control at 4 hours"},
      {"measurement": "Heart Rate", "setting": "[2]; T = 2 hours after trimazosin (100-300 mg.), individual patients", "result": "96 beats/min. and 84 beats/min. and 75 beats/min. and 81 beats/min. and 78 beats/min."},
      {"measurement": "left ventricular function curve shift upward and leftward", "setting": "[2]; after trimazosin", "result": "Only one patient failed to shift their left ventricular function curve upward and leftward"},
      {"measurement": "stroke volume", "setting": "[2]; after trimazosin", "result": "stroke volume was increased"},
      {"measurement": "time of maximal increase of cardiac index", "setting": "[2]; after trimazosin", "result": 1, "unit": "h"},
      {"measurement": "time of maximal reduction of pulmonary wedge pressure", "setting": "[2]; after trimazosin", "result": 2, "unit": "h"},
      {"measurement": "time of peak decline of mean systemic arterial pressure", "setting": "[2]; after trimazosin", "result": 1.5, "unit": "h"},
      {"measurement": "time of peak effects of the various hemodynamic parameters", "setting": "[2]; after trimazosin", "result": "1 to 3", "unit": "h"},
      {"measurement": "diastolic pressure at peak effect", "setting": "[2]; after trimazosin, control 74.8 ± 4.2, ns", "result": "67.0 ± 2.9", "unit": "mm. Hg."},
      {"measurement": "systolic arterial pressure at peak effect", "setting": "[2]; after trimazosin, control 128.3, p<0.05", "result": "116.8 ± 9.2", "unit": "mm. Hg."},
      {"measurement": "heart rate change", "setting": "[2]; following trimazosin", "result": "the decrease achieved statistical significance"},
      {"measurement": "right atrial pressure and forearm veins, patients responding", "setting": "[2]; following trimazosin", "result": "Right atrial pressure fell and forearm veins dilated in every patient"},
      {"measurement": "right atrial pressure", "setting": "[2]; one patient with normal pulmonary wedge pressure, fell from 5", "result": 3, "unit": "mm. Hg."},
      {"measurement": "tachycardia", "setting": "[2]; patients with congestive heart failure", "result": "did not produce tachycardia"},
      {"measurement": "cardiac output", "setting": "[2]; patients with normal control cardiac output or normal control pulmonary wedge pressure", "result": "appeared to reduce cardiac output"}
    ]}
  ]
}
